{
  "source": "paper PMC10454728",
  "about": "“A Comparative Study on the Lysosomal Cation Channel TMEM175 Using Automated Whole-Cell Patch-Clamp, Lysosomal Patch-Clamp, and Solid Supported Membrane-Based Electrophysiology: Functional Characterization and High-Throughput Screening Assay Development” (International Journal of Molecular Sciences, 2023)",
  "key": {"[1]": {"biological_target": "T1, TMEM175 (Homo sapiens, UniProt Q9BSA9)", "T1 sequence (Q9BSA9 1-504)": "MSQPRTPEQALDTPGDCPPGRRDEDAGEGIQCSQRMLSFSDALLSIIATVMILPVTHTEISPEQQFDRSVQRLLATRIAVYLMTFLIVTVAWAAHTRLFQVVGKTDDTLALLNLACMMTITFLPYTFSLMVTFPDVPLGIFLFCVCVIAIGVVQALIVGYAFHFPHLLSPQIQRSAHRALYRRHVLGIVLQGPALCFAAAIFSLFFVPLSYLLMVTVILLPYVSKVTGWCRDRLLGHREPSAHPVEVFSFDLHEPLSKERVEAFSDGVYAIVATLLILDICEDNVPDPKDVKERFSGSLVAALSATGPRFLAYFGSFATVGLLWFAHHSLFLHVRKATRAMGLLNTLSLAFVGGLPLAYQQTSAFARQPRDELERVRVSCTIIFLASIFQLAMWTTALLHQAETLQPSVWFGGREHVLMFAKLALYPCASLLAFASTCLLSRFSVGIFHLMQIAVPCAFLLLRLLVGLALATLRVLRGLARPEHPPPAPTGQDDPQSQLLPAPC", "assay": "Whole-cell automated patch-clamp (APC) Cs+ flux assay, SyncroPatch 384i, HEK293 overexpressing TMEM175", "assay_type": "cell-based", "conditions": "50 µM, at +100 mV, Figure 7F"}, "[2]": {"biological_target": "T1, TMEM175", "assay": "SSME K+ flux compound assay on purified lysosomes overexpressing TMEM175 (SURFE2R 96SE)", "assay_type": "biochemical"}, "[3]": {"system": "control lysosomes expressing endogenous TMEM175", "assay": "SSME off-target compound effects on control lysosomes (SURFE2R 96SE)", "assay_type": "biochemical, human", "description": "; (A) Dose-response curves for SC-79; (B) Dose-response curves for cluster 1 compounds showing similar effects with all three technologies; (C) Dose-response curves for cluster 2 compounds showing no activity in LPC, but higher activity in APC; (D) Dose-response curves for cluster 3 compounds showing high activity in LPC, but lower activity in APC; For all assay technologies, datapoints were normalized to the current recorded before compound addition and averaged across at least N = 3 individual experiments. For clarity reasons, the SEM is not shown; the average relative SEM after averaging datapoints recorded with two highest compound concentrations is 35.6% for LPC data and 2.9% for SSME data. The APC data were acquired using a voltage application protocol distinct from the one depicted in Figure 7B, as described in the Methods section. Datasets were not corrected for artifacts (as observed in SSME) or off-target compound effects. For SSME data, we indicate the difference in the peak current when applying the four highest concentrations of a compound to control lysosomes (to assess off-target effects) compared to the current recorded with TMEM175 lysosomes prior to compound addition. […] Considerable off-target compound effects are observed when the given percentage approaches the percentage of enhancement recorded with the TMEM175 sample at the given compound concentration. […] . When an EC50 value was determined from the fit, it is highlighted by a vertical dotted line. […]\nWe also investigated the effect of the eight test compounds on the artifact currents recorded with control lysosomes using the SURFE^2R 96SE.\nArtifact currents are typically in the range of −1 nA, while TMEM175 sample currents are +4 nA (Figure 1K). […] This corresponds to 3% to 30% of the current recorded with the TMEM175 sample in the absence of the compound. […]\na. For each single well, we performed an in-well normalization: the artifact corrected peak current obtained using a given condition is devided by the artifact corrected reference peak current recorded within the same well. b. […]"}},
  "data": [
    {"compound": "CCOC(=O)C1=C(N)Oc2ccc(Cl)cc2C1C(C#N)C(=O)OCC", "note": "(stereo not drawn) [SC-79]", "values": [
      {"measurement": "Current of TMEM175 cells after enhancer, APC", "setting": "[1]", "value": "305 ± 39", "unit": "%"},
      {"measurement": "EC50", "setting": "[2]; 50 mM K+ jump, not corrected for artifacts or off-target effects", "value": "2.9 ± 2.3", "unit": "µM"}
    ]},
    {"compound": "[Cl-].[Cl-].[Zn+2]", "note": "[Zn, ZnCl2]", "values": [
      {"measurement": "Off-target effect of zinc on control lysosomes (SURFE2R 96SE)", "setting": "[3]; in-plate control, Figure S5", "value": "small off-target inhibition"}
    ]},
    {"compound": "CCCCC1(C2CCCC2)Cc2cc(OCCCC(=O)O)c(Cl)c(Cl)c2C1=O", "note": "(stereo not drawn) [DCPIB]", "values": [
      {"measurement": "Off-target effect of DCPIB on control lysosomes (SURFE2R 96SE)", "setting": "[3]; 20 µM and below", "value": "did not have an effect"},
      {"measurement": "Off-target effect of DCPIB on control lysosomes (SURFE2R 96SE)", "setting": "[3]; 60 µM DCPIB, Figure S5", "value": "off-target inhibition"},
      {"measurement": "Effect of K+ concentration (driving force) on apparent EC50", "setting": "[2]; 2, 5, 10, 50 mM K+, 3, 10, 30 µM DCPIB", "value": "not affected"}
    ]}
  ]
}
